Here are results for 1 molecule from patent US11819488B2, “Nanosuspensions of salsalate and methods of using the same” (RHNanoPharma, priority 2018, dated 2023).

The conditions of series [1]: studies of 3 weeks or more in duration; cited from earlier work.
The conditions of series [2]: in terms of salicylic acid equivalents; cited from earlier work.
The nature of a further series: pH of salsalate in water. Format: physicochemical. As to the method:
The pH of salsalate in water was slightly below 4, so no pH adjustment was attempted. The samples were analyzed using Horiba light scattering particle size distributions (PSD). One of several acceptable formulations was selected to scale up to a higher concentration of API using high speed media milling.

For series [3] the following is noted: non-nano salsalate 3.0, 3.5, 4.0 g/d vs placebo, type two diabetes, P=0.003, FIG. 28A; cited from earlier work.
Series [4] can be described thus: Particle size analysis, Horiba light scattering; oral excipient screen (Example 1). Format: physicochemical. As to conditions: unmilled aqueous suspension of 5% salsalate, FIG. 1B. As to the method: The pH of salsalate in water was slightly below 4, so no pH adjustment was attempted. The samples were analyzed using Horiba light scattering particle size distributions (PSD). One of several acceptable formulations was selected to scale up to a higher concentration of API using high speed media milling. […] Eight different aqueous nanosuspensions of salsalate, with differing surfactants or combinations of surfactants, were prepared and analyzed for particle size. The first 7 formulations were made by roller milling with a Roller-Mill RM20 (ZOZ GmbH) with YTZ-800 grinding media (Tosoh Corp.) at 192 rpm. The 8th formulation was made via high speed media milling (5000 rpm). The particle sizes of the resultant compositions were then analyzed using a Horiba light scattering particle size analyzer. The compositions and results of the particle size analyses are shown below in Table 2 and in FIGS. 2A, 2B, 3A, 3B etc. through 9A and 9B.

For the molecule `O=C(Oc1ccccc1C(=O)O)c1ccccc1O` [salsalate, 2-hydroxybenzoyloxy benzoic acid], in series [1], the “study withdrawal from the salsalate group for any reason” value is on record as 17-38%. Moreover, the “salicylic acid obtained relative to an equivalent dose of aspirin, based on relative AUC values” in series [2] was “approximately 84%”. The “pH of salsalate in water” value in “pH of salsalate in water” is listed as “below 4”. For the same molecule, in series [3], the “HbAlc level over time, F test for the overall effect of treatment group” value was “significant”. Besides, in series [4], the D90 particle size is reported as 435 μm, the mean particle size is 244 μm and the median particle size is recorded as 222.24 μm.
